Test system: 299254-011-R-J1-PDC complex spheroid viability
Assay: Anticancer human tumor 299254-011-R-J1-PDC patient-derived melanoma cell line growth inhibition [POLQ]
Settings: for IC50: curve of first compound; for viability, T/C: stronger effect = lower value
Outline: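 Three-cell-type spheroids modelling solid tumor plus stroma served as the readout system; POL inhibitors were tested individually and in combination, concentration ranges set by clinical Cmax where known.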

[1] = second compound 0.0316 µM, first compound 0.0316 µM
[2] = second compound 0.0316 µM, first compound 0.1 µM
[3] = second compound 0.0316 µM, first compound 0.316 µM
[4] = second compound 0.0316 µM, first compound 1 µM
[5] = second compound 0.0316 µM, first compound 3.16 µM
[6] = second compound 0.0316 µM, first compound 10 µM
[7] = second compound 0.1 µM, first compound 0.0316 µM
[8] = second compound 0.1 µM, first compound 0.1 µM
[9] = second compound 0.1 µM, first compound 0.316 µM
[10] = second compound 0.1 µM, first compound 1 µM
[11] = second compound 0.1 µM, first compound 3.16 µM
[12] = second compound 0.1 µM, first compound 10 µM
[13] = second compound 0.316 µM, first compound 0.0316 µM
[14] = second compound 0.316 µM, first compound 0.1 µM
[15] = second compound 0.316 µM, first compound 0.316 µM
[16] = second compound 0.316 µM, first compound 1 µM
[17] = second compound 0.316 µM, first compound 3.16 µM
[18] = second compound 0.316 µM, first compound 10 µM
[19] = second compound 1 µM, first compound 0.0316 µM
[20] = second compound 1 µM, first compound 0.1 µM
[21] = second compound 1 µM, first compound 0.316 µM
[22] = second compound 1 µM, first compound 1 µM
[23] = second compound 1 µM, first compound 3.16 µM
[24] = second compound 1 µM, first compound 10 µM
[25] = second compound 3.16 µM, first compound 0.0316 µM
[26] = second compound 3.16 µM, first compound 0.1 µM
[27] = second compound 3.16 µM, first compound 0.316 µM
[28] = second compound 3.16 µM, first compound 1 µM
[29] = second compound 3.16 µM, first compound 3.16 µM
[30] = second compound 3.16 µM, first compound 10 µM
[31] = second compound 10 µM, first compound 0.0316 µM
[32] = second compound 10 µM, first compound 0.1 µM
[33] = second compound 10 µM, first compound 0.316 µM
[34] = second compound 10 µM, first compound 1 µM
[35] = second compound 10 µM, first compound 3.16 µM
[36] = second compound 10 µM, first compound 10 µM
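Note: spheroids exposed to drugs for one week before measurement.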
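Throughout, for viability, T/C: percent viability relative to DMSO vehicle control taken as 100%.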

## CC(C)n1c(=O)n(C)c2cnc3cc(F)c(-c4ccc(OCCCN5CCCCC5)nc4)cc3c21 + COC1C(OC(N)=O)C(O)C(Oc2ccc3c(O)c(NC(=O)c4ccc(O)c(CC=C(C)C)c4)c(=O)oc3c2C)OC1(C)C
Second compound 0.0316 µM
  IC50: > 10000 nM
Second compound 0.1 µM
  IC50: > 10000 nM
Second compound 0.316 µM
  IC50: > 10000 nM
Second compound 1 µM
  IC50: > 10000 nM
Second compound 3.16 µM
  IC50: > 10000 nM
Second compound 10 µM
  IC50: > 10000 nM
[1]
  viability, T/C: 145%
[2]
  viability, T/C: 129%
[3]
  viability, T/C: 109%
[4]
  viability, T/C: 126%
[5]
  viability, T/C: 112%
[6]
  viability, T/C: 111%
[7]
  viability, T/C: 113%
[8]
  viability, T/C: 127%
[9]
  viability, T/C: 128%
[10]
  viability, T/C: 131%
[11]
  viability, T/C: 112%
[12]
  viability, T/C: 91.2%
[13]
  viability, T/C: 121%
[14]
  viability, T/C: 147%
[15]
  viability, T/C: 117%
[16]
  viability, T/C: 121%
[17]
  viability, T/C: 114%
[18]
  viability, T/C: 110%
[19]
  viability, T/C: 113%
[20]
  viability, T/C: 111%
[21]
  viability, T/C: 132%
[22]
  viability, T/C: 107%
[23]
  viability, T/C: 112%
[24]
  viability, T/C: 82.9%
[25]
  viability, T/C: 112%
[26]
  viability, T/C: 130%
[27]
  viability, T/C: 116%
[28]
  viability, T/C: 118%
[29]
  viability, T/C: 123%
[30]
  viability, T/C: 102%
[31]
  viability, T/C: 126%
[32]
  viability, T/C: 128%
[33]
  viability, T/C: 139%
[34]
  viability, T/C: 128%
[35]
  viability, T/C: 135%
[36]
  viability, T/C: 115%

## CC1COCCN1c1cc(-c2ccnn2C)c2ccnc(-c3ccn[nH]3)c2n1 (centres undefined) + COC1C(OC(N)=O)C(O)C(Oc2ccc3c(O)c(NC(=O)c4ccc(O)c(CC=C(C)C)c4)c(=O)oc3c2C)OC1(C)C
Second compound 0.0316 µM
  IC50: 216 nM
Second compound 0.1 µM
  IC50: 232 nM
Second compound 0.316 µM
  IC50: 236 nM
Second compound 1 µM
  IC50: 242 nM
Second compound 3.16 µM
  IC50: 236 nM
Second compound 10 µM
  IC50: 295 nM
[1]
  viability, T/C: 104%
[2]
  viability, T/C: 71.6%
[3]
  viability, T/C: 39%
[4]
  viability, T/C: 28.6%
[5]
  viability, T/C: 36.5%
[6]
  viability, T/C: 19.8%
[7]
  viability, T/C: 106%
[8]
  viability, T/C: 69.5%
[9]
  viability, T/C: 43%
[10]
  viability, T/C: 27%
[11]
  viability, T/C: 36.9%
[12]
  viability, T/C: 18.8%
[13]
  viability, T/C: 88.8%
[14]
  viability, T/C: 63.6%
[15]
  viability, T/C: 46.7%
[16]
  viability, T/C: 28.9%
[17]
  viability, T/C: 31.3%
[18]
  viability, T/C: 18.9%
[19]
  viability, T/C: 92.4%
[20]
  viability, T/C: 72.2%
[21]
  viability, T/C: 43.2%
[22]
  viability, T/C: 26.9%
[23]
  viability, T/C: 38.4%
[24]
  viability, T/C: 16.6%
[25]
  viability, T/C: 94.6%
[26]
  viability, T/C: 75%
[27]
  viability, T/C: 42%
[28]
  viability, T/C: 26.5%
[29]
  viability, T/C: 35.9%
[30]
  viability, T/C: 22.7%
[31]
  viability, T/C: 102%
[32]
  viability, T/C: 82.1%
[33]
  viability, T/C: 47.9%
[34]
  viability, T/C: 30.6%
[35]
  viability, T/C: 41.7%
[36]
  viability, T/C: 20%
